System: SNB19 cells
Experiment: Wound healing assay
Assay type: cell-based, human
Conditions: 48 hrs after scratching; scratch 2 days after start of treatment
Description: The wound healing assay was carried out according to Zhang et al. (2018) J Mol Neurosci 64:262-272. At the designated time, five randomly selected fields at the lesion border were acquired under an inverted microscope (Olympus, IX71). The mean number of cells at the control group was defined as 100% and the mean number of other groups was normalised by means of the control group, respectively.

verteporfin
wound healing (cell migration): healed more slowly
